Reference: PMC10146949, “Cytotoxicity Profiles and Neuroprotective Properties of the Novel Ifenprodil Analogues as Sigma Ligands” (Molecules, 2023)
≈ marks a conversion by molar mass, not a printed value. Like-named read-outs stand apart in the source and are kept apart here.

Key:
[1] = target: T1, S2R (Rattus norvegicus, UniProt Q5U3Y7); test: S2R radioligand binding assay, [3H]DTG, rat liver membranes
T1 construct: A few rat livers were homogenized in cold 0.32 M sucrose with a Potter-Elvehjem glass homogenizer; tissue ENVIGO RMS S.R.L., Udine, Italy (animals); host or cells: Sprague Dawley rat liver membranes
T1 sequence (Q5U3Y7 1-176): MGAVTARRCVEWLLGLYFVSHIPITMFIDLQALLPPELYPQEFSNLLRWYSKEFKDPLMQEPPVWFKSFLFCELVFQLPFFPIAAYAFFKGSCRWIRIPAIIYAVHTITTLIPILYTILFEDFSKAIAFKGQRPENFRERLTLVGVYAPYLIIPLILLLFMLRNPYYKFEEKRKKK

[2] = test system: SOD1 gene expression in SH-SY5Y cells; test: Real-Time PCR of SOD1 mRNA levels; conditions: 12.5 µM, 12 h; for effect on SOD1 expression (in words): vs DMSO
Experimental: (§1) Total RNA (500 ng) was primed with hexameric random primers and retrotranscribed into cDNA with M-MLV reverse transcriptase (Thermo Fisher Scientific, Waltham, MA, USA). The normalization of targets’ gene expression was performed against the housekeeping gene RPL13A. Real-Time PCRs were performed by using iQ SYBR Green Supermix and CFX96 Real-Time PCR detection system (Bio-Rad Laboratories, Redmond, WA, USA). The relative expression levels were calculated using the 2^−∆∆CT method. An unpaired T-test was used to determine statistical significance. Values are presented as mean and error bars indicate standard errors (SE). The results are representative of two independent experiments in triplicate.

[3] = Cytotoxicity, resazurin cell viability test; type: cell-based, human; conditions: human
Experimental: (§2) Cell viability was tested by using Resazurin (SERVA Electrophoresis GmbH, Heidelberg, Germany), which in metabolically active cells is reduced to Resufurin, a redox indicator, whose fluorescence is proportional to the number of live cells [43, 44].
(§3) The percentage of viability was calculated after subtraction of the background (obtained by killing the cells), on the basis of the ratio between the fluorescence values of the cells incubated with a compound and the fluorescence values of cells incubated with the solvent (1% DMSO). The viability of cells incubated with 1% DMSO was considered to be equivalent to 100%.
(§4) The statistical analysis was carried out with GraphPad Prism® 6.0 (GraphPad Software, Inc, La Jolla, CA, USA) software using an unpaired t-test. p < 0.05 was considered statistically significant. Cytotoxicity concentrations (IC50s) were determined from dose-response curves analyzed by using GraphPad Prism software.

[4] = ABTS radical scavenging; conditions: ABTS 7 mM ethanolic, 45 min, 735 nm
Experimental: The compounds’ antioxidant capacity was evaluated by bleaching the green colored ethanolic solution of ABTS [41]. Test compounds (300 μL) were diluted as follows: 0.01, 0.025, 0.05, 0.1, and 0.2 mg/mL and added to 2.7 mL of ethanolic solution of ABTS (7 mM). These mixtures were incubated for 45 min at room temperature, and the absorbances were recorded at λ = 735 nm against the ABTS solution. The results were obtained as the percent of inhibition (% IC) of ABTS radical, calculated by the following formula. % IC = [(Abs ABTS − Abs Sample)/Abs ABTS] × 100
Data were expressed as mean value ± SD, and the assay was performed in triplicate.
The % IC was used to determine the IC50 values.

[5] = Hydrogen peroxide scavenging; conditions: H2O2 2 mM, 230 nm
[6] = test system: NRF2 gene expression in SH-SY5Y cells; test: Real-Time PCR of NRF2 mRNA levels; conditions: 12.5 µM, 12 h; for effect on NRF2 expression (in words): vs DMSO
Experimental: as §1

[7] = target: T2, S1R (Cavia porcellus, UniProt Q60492); test: S1R radioligand binding assay, [3H](+)-pentazocine, guinea pig brain cortex homogenates; conditions: for S2R/S1R selectivity ratio: ratio of Ki S2R to Ki S1R
T2 construct: Fresh guinea pig brain cortex was homogenized in ice-cold Tris (50 mM, pH 7.4); tissue ENVIGO RMS S.R.L., Udine, Italy (animals); host or cells: male Dunkin-Hartley guinea pig brain cortex membranes
Experimental: The bound radioactivity has been determined using a Beckman LS 6500 liquid scintillation counter (Beckman Coulter, Brea, CA, USA).
The test compound solutions were prepared by dissolving approximately 10 µmol of the test compound in DMSO to obtain a 10 mM stock solution.
Fresh guinea pig brain cortex was homogenized in ice-cold Tris (50 mM, pH 7.4) containing cold 0.32 M sucrose with a Potter-Elvehjem glass homogenizer. […] The final pellet was resuspended in ice-cold Tris buffer, and frozen at −80 °C. The protein concentration was determined by the method of Bradford [42].
Bound and free radioligand were separated by fast filtration under reduced pressure using a Millipore filter apparatus through Whatman GF 6 glass fiber filters, which were presoaked in a 0.5% poly(ethyleneimine) water solution for 120 min. Each filter paper was rinsed three times with 3 mL of ice-cold Tris buffer (50 mM, pH 7.4), dried at room temperature, and incubated overnight with 3 mL of Ultima Gold MV Scintillation cocktail into pony vials.
The Ki-values were calculated with the program GraphPad Prism® 6.0 (GraphPad Software, San Diego, CA, USA). The Ki-values are given as the mean value ± SD from at least two independent experiments performed in duplicate.

[8] = target: S2R; set-up: method as in PMID 31319263; conditions: ifenprodil, Table 2 footnote b; cited from earlier work
[9] = test system: S1R; test: S1R affinity taken from the literature; type: binding; conditions: ifenprodil, from literature Ki values
Description: Table 2 Binding affinities towards S1R and S2R, for compounds 5a–o.

[10] = target: S1R; conditions: cited from earlier work
[11] = test system: SH-SY5Y cells; test: Cytotoxicity, resazurin cell viability test; type: cell-based, human
Experimental: as §2, §3, §4

T2 sequence (Q60492 whole entry): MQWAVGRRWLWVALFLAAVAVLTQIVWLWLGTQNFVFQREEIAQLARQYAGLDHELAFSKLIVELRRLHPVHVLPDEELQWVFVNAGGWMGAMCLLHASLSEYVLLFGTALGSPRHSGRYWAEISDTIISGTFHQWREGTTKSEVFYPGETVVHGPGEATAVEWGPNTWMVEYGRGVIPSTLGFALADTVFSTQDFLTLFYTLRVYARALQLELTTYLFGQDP

| SMILES | Ki ([1]; read-out: Ki S2R) [nM] | IC50 H2O2 [5] [µg/mL] | S2R/S1R selectivity ratio [7] | Ki ([7]; read-out: Ki S1R) [nM] | Ki [7] [nM] | other results |
| --- | --- | --- | --- | --- | --- | --- |
| COc1ccc(C(O)C(C)N2CCCN(Cc3ccccc3)CC2)cc1 (stereo not drawn) [5o, 2-(4-Benzyl-1,4-diazepan-1-yl)-1-(4-methoxyphenyl)propan-1-ol] | 128 ± 26 | 12.13 ± 0.25 (≈ 34.2 µM) | 32 | 4.2 ± 0.6 | – | effect on SOD1 expression (in words) [2]: dramatically reduced; IC50 ([3]; SH-SY5Y neuroblastoma cells): 118000 nM; IC50 ABTS [4]: 2.481 ± 0.05 µg/mL (≈ 7 µM); effect on NRF2 expression (in words) [6]: significant decrease |
| CC(C(=O)c1ccccc1)N1CCN(c2ccccc2)CC1 (stereo not drawn) [5b, 2-(4-Phenylpiperazin-1-yl)-1-phenylpropan-1-one] | 158 ± 30 | – | 0.05 | 2930 ± 1150 | – | melting point: 105 to 106 °C |
| CC(C(O)c1ccc(O)cc1)N1CCC(Cc2ccccc2)CC1 (stereo not drawn) [Ifenprodil] | – | – | – | – | – | Ki [8]: 98 ± 34 nM; S2R/S1R selectivity ratio [9]: 0.75; Ki ([10]; ifenprodil, Table 2 footnote b): 125 ± 24 nM |
| CCCN(CCC)CCc1ccc(OC)c(OCCc2ccccc2)c1 [NE100, reference compound] | – | – | – | – | – | IC50 [11]: 49000 nM |
| COc1ccc(C(=O)C(C)N2CCN(c3ccccc3)CC2)cc1 (stereo not drawn) [5f, 2-(4-Phenylpiperazin-1-yl)-1-(4-methoxyphenyl)propan-1-one] | 989 ± 337 | – | 0.53 | 1860 ± 987 | – | melting point: 117 to 119 °C |
| CC(C(=O)c1ccccc1)N1CCN(Cc2ccccc2)CC1 (stereo not drawn) [5d, 2-(4-Benzylpiperazin-1-yl)-1-phenylpropan-1-one] | 302 ± 65 | 14.56 ± 0.18 (≈ 47.2 µM) | 38 | – | 8 ± 1 | SOD1 mRNA levels, fold increase compared to DMSO [2]: 1.3 fold; IC50 ([3]; SH-SY5Y cells): 118000 nM; IC50 ABTS [4]: 2.854 ± 0.11 µg/mL (≈ 9.25 µM); NRF2 mRNA levels, fold increase compared to DMSO [6]: 1.7 fold |
| CC(C(=O)c1ccc(O)cc1)N(C)CCCCc1ccccc1 (stereo not drawn) [5j, 1-(4-Hydroxyphenyl)-2-(methyl(4-phenylbutyl)amino)propan-1-one] | – | – | 0.38 | 121 ± 22 | – | Ki [1]: 45 ± 4 nM |
| CC(C(=O)c1ccccc1)N1CCCN(Cc2ccccc2)CC1 (stereo not drawn) [5a, 2-(4-Benzyl-1,4-diazepan-1-yl)-1-phenylpropan-1-one] | 108 ± 21 | – | 1.6 | – | 69 ± 14 | – |
| COc1cc2c(cc1OC)C(=O)C(CC1CCN(Cc3ccccc3)CC1)C2 (stereo not drawn) [Donepezil] | – | – | – | – | – | Ki ([10]; donepezil): 14.6 nM |
| CC(C(=O)c1ccc(O)cc1)N1CCN(c2ccccc2)CC1 (stereo not drawn) [5l, 2-(4-Phenylpiperazin-1-yl)-1-(4-hydroxyphenyl)propan-1-one] | 147 ± 17 | – | 0.18 | 785 ± 226 | – | melting point: 163 to 165 °C |
| COc1ccc(C(O)C(C)N(C)CCCCc2ccccc2)cc1 (stereo not drawn) [5n, 1-(4-Methoxyphenyl)-2-(methyl(4-phenylbutyl)amino)propan-1-ol] | 479 ± 93 | – | 13 | – | 38 ± 9 | – |
| COc1ccc(C(=O)C(C)N(C)CCCCc2ccccc2)cc1 (stereo not drawn) [5g, 1-(4-Methoxyphenyl)-2-(methyl(4-phenylbutyl)amino)propan-1-one] | 386 ± 110 | – | 3.3 | 117 ± 18 | – | – |
| CC(C(=O)c1ccccc1)N(C)CCCCc1ccccc1 (stereo not drawn) [5c, 2-(Methyl(4-phenylbutyl)amino)-1-phenylpropan-1-one] | 733 ± 106 | – | 0.15 | 4720 ± 1690 | – | – |
| Fc1ccc(-n2cc(CCCCN3CCC4(CC3)OCc3ccccc34)c3ccccc32)cc1 [Siramesine, reference compound] | – | – | – | – | – | IC50 ([3]; SH-SY5Y neuroblastoma cells): 2000 nM |
| COc1ccc(C(=O)C(C)N2CCCN(Cc3ccccc3)CC2)cc1 (stereo not drawn) [5e, 2-(4-Benzyl-1,4-diazepan-1-yl)-1-(4-methoxyphenyl)propan-1-one] | – | 12.65 ± 0.21 (≈ 35.9 µM) | 8.1 | – | 12 ± 2 | Ki [1]: 97 ± 17 nM; effect on SOD1 expression (in words) [2]: did not significantly alter; IC50 ([3]; SH-SY5Y cells): 74000 nM; IC50 ABTS [4]: 2.495 ± 0.09 µg/mL (≈ 7.08 µM); effect on NRF2 expression (in words) [6]: did not change its expression significantly |
| CC(C(O)c1ccccc1)N(C)CCCCc1ccccc1 (stereo not drawn) [5m, 2-(Methyl(4-phenylbutyl)amino)-1-phenylpropan-1-ol] | – | – | 0.81 | – | 37 ± 10 | Ki [1]: 30 ± 8 nM |
| COc1ccc(C(=O)C(C)N2CCN(Cc3ccccc3)CC2)cc1 (stereo not drawn) [5h, 2-(4-Benzylpiperazin-1-yl)-1-(4-methoxyphenyl)propan-1-one] | – | 466.24 ± 1.36 (≈ 1380 µM) | – | – | 1.4 ± 0.2 | Ki [1]: 84 ± 31 nM; effect on SOD1 expression (in words) [2]: dramatically reduced; IC50 ([3]; SH-SY5Y cells): 117000 nM; effect on NRF2 expression (in words) [6]: significant decrease |
| CC(C(=O)c1ccc(O)cc1)N1CCN(Cc2ccccc2)CC1 (stereo not drawn) [5k, 2-(4-Benzylpiperazin-1-yl)-1-(4-hydroxyphenyl)propan-1-one] | 129 ± 23 | 436.43 ± 1.17 (≈ 1350 µM) | 6.8 | – | 19 ± 2 | effect on SOD1 expression (in words) [2]: dramatically reduced; IC50 ([3]; SH-SY5Y cells): 132000 nM; effect on NRF2 expression (in words) [6]: significant decrease; melting point: 58 to 59 °C |
| Cc1c(C)c2c(c(C)c1O)CCC(C)(C(=O)O)O2 (stereo not drawn) [Trolox, 6-hydroxy-2,5,7,8-tetramethylchroman-2-carboxylic acid, reference compound] | – | 15.69 ± 0.69 (≈ 62.7 µM) | – | – | – | IC50 ABTS [4]: 2.365 ± 0.19 µg/mL (≈ 9.45 µM) |
| CC(C(=O)c1ccc(O)cc1)N1CCCN(Cc2ccccc2)CC1 (stereo not drawn) [5i, 2-(4-Benzyl-1,4-diazepan-1-yl)-1-(4-hydroxyphenyl)propan-1-one] | – | 13.11 ± 0.24 (≈ 38.7 µM) | 1.1 | – | 19 ± 3 | Ki [1]: 22 ± 4 nM; effect on SOD1 expression (in words) [2]: did not significantly alter; IC50 ([3]; SH-SY5Y cells): 294000 nM; IC50 ABTS [4]: 2.603 ± 0.09 µg/mL (≈ 7.69 µM); NRF2 mRNA levels, fold increase compared to DMSO [6]: 2.8 fold |
| O=C(CCCN1CCC(O)(c2ccc(Cl)cc2)CC1)c1ccc(F)cc1 [Haloperidol, reference compound] | – | – | – | – | – | effect on SOD1 expression (in words) [2]: did not cause significant changes; IC50 ([3]; SH-SY5Y neuroblastoma cells): 23000 nM; effect on NRF2 expression (in words) [6]: did not cause significant changes |
